In brackets after ≈: the same amount, converted by molar mass. Several values for one entry are separate records, joined by “and”; a condition that tells them apart may be missing. Identical values can stand only once. Like-named read-outs stand apart in the source and are kept apart here.
Key:
Candida albicans = assay: MIC100, clinical isolates of hospital-acquired pathogens (Table 7); type: cell-based; settings: one table line per isolate, RPMI synthetic medium, in µg/mL
E. coli [1] = assay: MIC100, modified NCCLS microbroth dilution (Table 6); type: cell-based; settings: Escherichia coli
[2] = system: S. aureus and methicillin-resistant S. aureus (MRSA); assay: as above; type: cell-based; settings: Staphylococcus aureus
B. anthracis = assay: microbe, parasite or virus in culture; type: cell-based, Bacillus anthracis
Y. pestis = assay: microbe, parasite or virus in culture; type: cell-based; settings: Yersinia pestis, 30 h, read-out: MIC100 Y. pestis (30 hr)
S. aureus = type: cell-based; settings: S. aureus passaged at 0.5x MIC100; by passage 16 (17 consecutive passages)
E. coli [3] = assay: Modified NCCLS microbroth dilution MIC assay; type: cell-based; settings: Escherichia coli; for MIC: 18 to 20 hours incubation, OD 600 nm
human erythrocytes = assay: Hemolysis of human erythrocytes (HC50); settings: for Hemolysis HC50: one hour incubation, 50% hemoglobin release, Table 1
B. subtilis = assay: Modified NCCLS microbroth dilution MIC assay; settings: Bacillus subtilis; for MIC: read-out: B. subtilis MIC
Aspergillus fumigatus = assay: Antifungal MIC/MFC, NCCLS M38-A; type: cell-based
Procedure: (§1) MIC endpoints were determined for A. fumigatus, P. funiculosum, C. globosum and T. virens according to current NCCLS guidelines defined for testing A. fumigatus (NCCLS M38-A, 2002). […] Amphotericin B was included in the screen with C. albicans as a positive control. All MIC testing was done in 96 well microtiter panels using RPMI 1640 (with glutamine and without bicarbonate) broth as a growth media. Incubation was at 35° C., and growth was read at 48, 72, (and for some slow growing fungal species, 96 hours). […] MFC (minimal fungicidal concentrations) endpoints were calculated using a modified methodology based on the NCCLS defined methodology for measuring minimal bactericidal concentrations (MBC). Experimentation to calculate MFCs was undertaken only for those organisms for which an MIC endpoint was satisfactorily calculated. MFCs are defined as the concentration required to reduce the number of viable organisms by at least 90%.

Chaetomium globosum = assay: Antifungal MIC/MFC, NCCLS M38-A; type: cell-based
Procedure: as §1

Penicillium funiculosum = assay: Antifungal MIC/MFC, NCCLS M38-A; type: cell-based
Procedure: as §1

Trichoderma virens = assay: Antifungal MIC/MFC, NCCLS M38-A; type: cell-based
Procedure: as §1

Enterococcus faecalis = assay: MIC100, clinical isolates of hospital-acquired pathogens (Table 7); type: cell-based; settings: control strain ATCC 29212
Haemophilus influenzae = assay: as above; type: cell-based; settings: Mueller Hinton+NAD+yeast extract+hematin
Streptococcus pyogenes = assay: as above; type: cell-based; settings: Mueller Hinton+2-5% lysed horse blood, in µg/mL
Streptococcus pneumoniae = assay: as above; type: cell-based; settings: for mic (MIC100) Streptococcus pneumoniae: clinical isolates, no phenotype given; for mic (MIC100) Streptococcus pneumoniae / mic (MIC100) Streptococcus pneumoniae PEN-R: Mueller Hinton+2-5% lysed horse blood, in µg/mL; for mic (MIC100) Streptococcus pneumoniae ATCC 49619: control strain ATCC 49619; for mic (MIC100) Streptococcus pneumoniae PEN-R: penicillin-resistant clinical isolates
[4] = concentration reducing viable organisms by at least 90%

C[C@@H]1[C@H](O)[C@@H](C)/C=C/C=C/C=C/C=C/C=C/C=C/C=C/[C@H](O[C@@H]2O[C@H](C)[C@@H](O)[C@H](N)[C@@H]2O)C[C@@H]2O[C@](O)(C[C@@H](O)C[C@@H](O)[C@H](O)CC[C@@H](O)C[C@@H](O)CC(=O)O[C@H]1C)C[C@H](O)[C@H]2C(=O)O [AMP B, amphotericin B]
mic (MIC100) Candida albicans (Candida albicans): 2

NCC[C@H](O)C(=O)N[C@@H]1C[C@H](N)[C@@H](O[C@H]2O[C@H](CN)[C@@H](O)[C@H](O)[C@H]2O)[C@H](O)[C@H]1O[C@H]1O[C@H](CO)[C@@H](O)[C@H](N)[C@H]1O [Amikacin, amikacin, reference compound]
MIC (E. coli [1]; strain ATCC25922, read-out: MIC100 E. coli ATCC25922): 1 µg/mL (≈ 1.71 µM) | MIC (E. coli [1]; strain OC2530, read-out: MIC100 E. coli OC2530): 2 µg/mL (≈ 3.42 µM) | MIC ([2]; ATCC 29213 / MRSA, strain ATCC29213 (Table 6), read-out: MIC100 S. aureus ATCC29213): 2 µg/mL (≈ 3.42 µM) | MIC ([2]; MRSA, methicillin-resistant S. aureus OC2878, read-out: MIC100 MRSA OC2878): 64 µg/mL (≈ 109 µM)

O=C(O)c1cn(C2CC2)c2cc(N3CCNCC3)c(F)cc2c1=O [Ciprofloxacin, ciprofloxacin, reference compound]
MIC (B. anthracis; Bacillus anthracis, 24 h, read-out: MIC100 B. anthracis (24 hr)): 0.125 to 0.25 µg/mL (≈ 0.377 to 0.754 µM) | Time course of growth inhibition of Bacillus anthracis (B. anthracis; growth recorded at 2 hour intervals over 24 hours (FIG. 3)): transient cell growth was observed at early time points | MIC (Y. pestis): 0.0312 µg/mL (≈ 0.0942 µM) | increase in MIC on serial passage (S. aureus): 125 fold

N=C(N)NCCc1cc(Br)cc(C#Cc2cccc(C#Cc3cc(Br)cc(CCNC(=N)N)c3)c2)c1 [Compound 2]
MIC90 (E. coli [3]; read-out: MIC90 E. Coli): 1.6 µg/mL (≈ 2.64 µM) | MIC (E. coli [3]): 3.2 µg/mL (≈ 5.28 µM) | Hemolysis HC50 (human erythrocytes; human erythrocytes): 8 µg/mL | HC50 (human erythrocytes; human erythrocytes, Table 2): 8.5 µg/mL | Selectivity HC50/MIC E.coli (human erythrocytes; ratio of HC50 to E. coli MIC): 5.3 | MIC (B. subtilis): 1.6 µg/mL (≈ 2.64 µM) | MIC90 (B. subtilis; read-out: MIC90 B. subtilis): 1.6 µg/mL (≈ 2.64 µM)

NCCNC(=O)c1cc(Br)cc(C#Cc2cccc(C#Cc3cc(Br)cc(C(=O)NCCN)c3)c2)c1 [Compound 4]
MIC (E. coli [3]): 50 µg/mL (≈ 82.2 µM) | Hemolysis HC50 (human erythrocytes; human erythrocytes): 12.5 µg/mL | MIC (B. subtilis): 25 µg/mL (≈ 41.1 µM)

CCCCCOc1c(I)cc(CN)cc1C#Cc1cccc(C#Cc2cc(CN)cc(I)c2OCCCCC)c1 [Compound 5]
MIC (E. coli [3]): 25 µg/mL (≈ 32.9 µM) | Hemolysis HC50 (human erythrocytes; human erythrocytes): <12.5 µg/mL | MIC (B. subtilis): 100 µg/mL (≈ 131 µM)

CCCCCOc1c(I)cc(CNC(=N)N)cc1C#Cc1cccc(C#Cc2cc(CNC(=N)N)cc(I)c2OCCCCC)c1 [Compound 6]
MIC (E. coli [3]): 6.4 µg/mL (≈ 7.58 µM) | Hemolysis HC50 (human erythrocytes; human erythrocytes): 5 µg/mL | MIC (B. subtilis): 3.2 µg/mL (≈ 3.79 µM)

OC(Cn1cncn1)(Cn1cncn1)c1ccc(F)cc1F [Fluconazole, reference compound]
MIC Aspergillus fumigatus (Aspergillus fumigatus; RPMI 1640, 35° C.): >32/>32 | MFC Aspergillus fumigatus (Aspergillus fumigatus; [4]): >32/>32 | MIC Chaetomium globosum (Chaetomium globosum; RPMI 1640, 35° C.): 0.25/0.25 | MFC Chaetomium globosum (Chaetomium globosum; [4]): 0.25/0.25 | MIC Penicillium funiculosum (Penicillium funiculosum; RPMI 1640, 35° C.): 4 µg/mL (≈ 13.1 µM) | MFC Penicillium funiculosum (Penicillium funiculosum; [4]): > 32 µg/mL | MIC Trichoderma virens (Trichoderma virens; RPMI 1640, 35° C.): >128/>128 | MFC Trichoderma virens (Trichoderma virens; [4]): >128/>128

C[C@H]1COc2c(N3CCN(C)CC3)c(F)cc3c(=O)c(C(=O)O)cn1c23 [LEVOFLOX, levofloxacin]
mic (MIC100) Candida albicans (Candida albicans): >8 | mic (MIC100) Enterococcus faecalis ATCC 29212 (Enterococcus faecalis): 0.5 µg/mL | mic (MIC100) Haemophilus influenzae (Haemophilus influenzae): ≦0.03 | mic (MIC100) Streptococcus pyogenes (Streptococcus pyogenes): 0.25 and 0.5 | mic (MIC100) Streptococcus pneumoniae (Streptococcus pneumoniae): 1 and 0.5 | mic (MIC100) Streptococcus pneumoniae ATCC 49619 (Streptococcus pneumoniae): 0.5 µg/mL | mic (MIC100) Streptococcus pneumoniae PEN-R (Streptococcus pneumoniae): 0.5

CC(=O)NC[C@H]1CN(c2ccc(N3CCOCC3)c(F)c2)C(=O)O1 [LINEZOLID, linezolid]
mic (MIC100) Candida albicans (Candida albicans): >8 | mic (MIC100) Enterococcus faecalis ATCC 29212 (Enterococcus faecalis): 2 µg/mL | mic (MIC100) Haemophilus influenzae (Haemophilus influenzae; in µg/mL): >8 and 8 | mic (MIC100) Streptococcus pyogenes (Streptococcus pyogenes): 1 | mic (MIC100) Streptococcus pneumoniae (Streptococcus pneumoniae): 1 | mic (MIC100) Streptococcus pneumoniae ATCC 49619 (Streptococcus pneumoniae): 1 µg/mL | mic (MIC100) Streptococcus pneumoniae PEN-R (Streptococcus pneumoniae): 0.5 and 1

CN[C@H](CC(C)C)C(=O)N[C@H]1C(=O)N[C@@H](CC(N)=O)C(=O)N[C@H]2C(=O)N[C@H]3C(=O)N[C@H](C(=O)N[C@H](C(=O)O)c4cc(O)cc(O)c4-c4cc3ccc4O)[C@H](O)c3ccc(c(Cl)c3)Oc3cc2cc(c3O[C@@H]2O[C@H](CO)[C@@H](O)[C@H](O)[C@H]2O[C@H]2C[C@](C)(N)[C@H](O)[C@H](C)O2)Oc2ccc(cc2Cl)[C@H]1O [VANCO, vancomycin]
mic (MIC100) Candida albicans (Candida albicans): >32 | mic (MIC100) Enterococcus faecalis ATCC 29212 (Enterococcus faecalis): 4 µg/mL | mic (MIC100) Haemophilus influenzae (Haemophilus influenzae; in µg/mL): >32 | mic (MIC100) Streptococcus pyogenes (Streptococcus pyogenes): 0.5 | mic (MIC100) Streptococcus pneumoniae (Streptococcus pneumoniae): 0.5 | mic (MIC100) Streptococcus pneumoniae ATCC 49619 (Streptococcus pneumoniae): 0.5 µg/mL | mic (MIC100) Streptococcus pneumoniae PEN-R (Streptococcus pneumoniae): 0.5 and 1

CCn1cc(C(=O)O)c(=O)c2cc(F)c(N3CCNCC3)cc21 [norfloxacin]
increase in MIC on serial passage (S. aureus): 160 fold
